Results: patent publication US6541486B1, “Bis-benzimidazole compounds and analogs thereof for inhibiting cell death” (Elan Pharma International Ltd., priority 1999, dated 2003)
pEC50: −log10 of the molar value. “Also recorded” adds a separate entry of the source.

How the values were obtained:
[1] = tested on: rat middle cerebral artery occlusion (MCAO) model of focal ischemia; assay: MCAO in vivo stroke model: ischemic, infarct and edema volumes; conditions: for Reducing post-ischemic damage (in words): rats; for % Protection, Cortical infarct volume / % Protection, Cortical penumbra / % Protection, Edema / % Protection, Subcortical infarct volume / % Protection, Subcortical penumbra / % Protection, Total infarct volume / % Protection, Total ischemic volume: rat
Method: Compounds were administered by either an IV (intravenous) or ICV (intracerebroventricular) route in the MCAO model, described above and in Example 18. The extent of ischemic damage in the absence and presence of compound was assessed by visualization of coronal brain slices. Conversion of 2,3,5-triphenyltetrazolium chloride (TTC) to formazan in normal tissue produces a red color. Unstained areas (white) constitute the infarct, whereas pink areas between white (infarction) and red stained areas (normal brain) define the ischemia penumbra. Preliminary studies confirmed that tissues stained pink contained mixed populations of living and dead cells.
Results are also illustrated in FIGS. 2-3 for ICV administration and FIGS. 4-5 for IV administration.
Adult male Wistar rats weighing 310-380 g were used. Animals were fasted overnight but allowed free access to water. Anesthesia was induced and maintained with 3% isoflurane in […]. Systemic blood pressure was recorded before, during and after middle cerebral artery occlusion (MCAO) and immediately before administering the test compound. Subjects received test compound SNX 912, 5 mg/kg ICV pre-MCAO, or 25 mg/kg IV immediately following reperfusion, after two hours MCAO, as compared to control subjects, which received deionized water. Temperature was controlled and recorded before, during and following reperfusion. After reperfusion, temperature was measured every hour for 4 hrs post-reperfusion.
All animals were subjected to 2 hr of MCAO using the intraluminal filament technique of Koizume et al. (1986) as modified by Zhao et al. (1994). A midline surgical incision was made to expose the right common, external and internal carotid arteries. The common cartotid, external carotid and occipital arteries were tightly ligated, and the internal carotid artery was temporarily closed with a microvascular clip. A small incision was made in the common carotid artery and a nylon monofilament was inserted into the internal carotid artery through the common carotid artery. The filament was then carefully advanced 19 mm cephalad to occlude the middle cerebral artery at its site of origin within the Circle of Willis. […] After 2 hr of MCAO, the animals were re-anesthetized with 1.5% halothane, and the occlude filament was withdrawn to allow reperfusion.
Because MCAO by the intraluminal filament technique can give rise to intra- and post-ischemia hyperthermia, rectal temperature was controlled by external heating and cooling for 6 hrs after initiating MCAO. Rectal temperature was maintained at 37.5+/−0.5° C.
Animals were killed 24 hr post-reperfusion by CO2 asphyxiation. Following asphyxiation, the brains were quickly removed and chilled in ice cold 0.9% saline for 10 min. To visualize the extent of ischemic damage, seven 2 mm thick coronal slices were cut from each brain with a tissue slicer beginning with 1 mm posterior to the anterior pole. The slices were immersed in a 0.9% saline solution containing 1.0% 2,3,5-tripheyltetrazolim chloride (TTC) and incubated at 37° C. for 30 minutes, and observed for the presence of formazan (red), which is produced by the reduction of TTC by endogenous dehydrogenase activity in normal living tissues.

[2] = tested on: OGD cells (retinal ganglion cells); assay: Increase in survival of OGD cells at fixed concentrations (similar assay); assay type: cell-based, rat
[3] = tested on: Oxygen/Glucose Deprived RGCs (retinal ganglion cells); assay: Protection of oxygen/glucose deprived (OGD) retinal ganglion cells, EC50; conditions: overall judgement
Method: Each compound was added to control cells and to cells deprived of oxygen and glucose for the time period from 30 minutes prior to OGD, during OGD, and for 24 and 48 hours after OGD.
RGCs from postnatal day 8 (P8) Sprague-Dawley rats were purified as previously described (Barres et al., 1988; Meyer-Franke et al., 1995). Purified retinal ganglion cells were plated onto tissue culture plastic precoated with poly-D-lysine and merosin, and cultured in serum-free Neurobasal medium (Gibco) containing various supplements.
Approximately 5,000 purified RGCs were cultured in 96-well plates (Falcon), precoated with poly-D-lysine (PDL, 70 kD, 10 mg/ml; Sigma) and merosin (2 mg/ml; Gibco). The RGCs were cultured in serum-free Neurobasal medium (Brewer et al., 1993; Gibco) containing Sato-Bottenstein and B27 (Gibco) supplement, insulin (Sigma, 5 mg/ml), brain-derived neurotrophic factor (BDNF, 25 ng/ml; Preprotech), ciliary neurotrophic factor (CNTF, 20 ng/ml; Preprotech) and forskolin (10 mM, Sigma). The percentage of surviving cells was assessed at 3, 7, and 14 days by the MTT assay.
Retinal ganglion cells were grown in 96-well plates for 5 days in serum-free medium as described above. On the sixth day cells were washed three times in a salt solution, e.g. Earle's balanced salt solution (EBSS, Gibco), containing glucose for control cells, and lacking glucose for test cells (oxygen/glucose-deprived cells). Control cells were further incubated in a 5% CO2 incubator while OGD cells were deprived of oxygen in an anaerobic chamber (for 3 hours). Test compounds were added to control cells and OGD cells for the time period from 30 minutes prior to OGD, during OGD, and for 24 and 48 hours after OGD.
After 3 hours OGD, control and test cells were transferred to growth medium with glucose and cultured an additional 48 hours in a 5% CO2 incubator, followed by a determination of cell viability using MTT, propidium iodide and annexin assays.
For the cell viability assay, MTT was added to culture and incubated at 37° C. for 1 hr. […] Viable and dead cells are counted by bright field microscopy at various times, e.g. 24, 48, or 72 hours after oxygen/glucose and/or growth factor deprivation. All values are reported as the mean (average) +/− the standard error of the mean (SEM) for at least three replicate cultures.

[4] = tested on: Oxygen/Glucose Deprived Cardiac Myocytes; assay: Protection of oxygen/glucose deprived cardiac myocytes; assay type: cell-based
Method: The hypoxic cardiac myocyte (CM) has been used as a simplified model of myocardial ischemia. In the present study, cultures of CM's were deprived of oxygen and glucose for 8 hours, then also exposed to 24-48 hours reoxygenation. It is known that reperfusion of the damaged areas can be one of the major mechanisms of myocardial cellular injury. […] Cell survival was quantitated as described above.

[5] = IV (25 mg/kg) immediately following reperfusion after 2 h MCAO
[6] = 8 hrs OGD / 24 hrs reoxygenation
[7] = 8 hrs OGD / 48 hrs reoxygenation

SMILES: Nc1cccc2[nH]c(Cc3nc4ccccc4[nH]3)nc12 [SNX 912, 2-(benzimidazol-2′-yl)methyl-4-amino benzimidazole]
- Reducing post-ischemic damage (in words) ([1]; 5 mg/kg ICV): effective
- Reducing post-ischemic damage (in words) ([1]; 25 mg/kg IV): effective
- % Protection, Cortical infarct volume ([1]; ICV (5 mg/kg) pre-MCAO): 76%
- % Protection, Cortical penumbra ([1]; ICV (5 mg/kg) pre-MCAO): 30%
- % Protection, Edema ([1]; ICV (5 mg/kg) pre-MCAO): 80%
- % Protection, Subcortical infarct volume ([1]; ICV (5 mg/kg) pre-MCAO): 75%
- % Protection, Subcortical penumbra ([1]; ICV (5 mg/kg) pre-MCAO): 7%
- % Protection, Total infarct volume ([1]; ICV (5 mg/kg) pre-MCAO): 76%
- % Protection, Total ischemic volume ([1]; ICV (5 mg/kg) pre-MCAO): 47%
- % Protection, Cortical infarct volume [1, 5]: 53%
- % Protection, Cortical penumbra [1, 5]: 10%
- % Protection, Edema [1, 5]: 26%
- % Protection, Subcortical infarct volume [1, 5]: 55%
- % Protection, Subcortical penumbra [1, 5]: 18%
- % Protection, Total infarct volume [1, 5]: 55%
- % Protection, Total ischemic volume [1, 5]: 32%
- Percent Increase in Survival over OGD Control Cells ([2]; Concn 0.001 μM): ++ (50%-100% increase)
- Percent Increase in Survival over OGD Control Cells ([2]; Concn 0.01 μM): ++ (50%-100% increase)
- Percent Increase in Survival over OGD Control Cells ([2]; Concn 0.1 μM): ++ (50%-100% increase)
- Percent Increase in Survival over OGD Control Cells ([2]; Concn 1 μM): +++ (>100% increase)
- Percent Increase in Survival over OGD Control Cells ([2]; Concn 10 μM): +++ (>100% increase)
- Effectiveness in protecting OGD RGCs (in words, from Tables 5 and 6) [3]: more effective overall than the unsubstituted compound
- pEC50 [4, 6]: 6.51
- TI (therapeutic index) [4, 6]: >30
- pEC50 [4, 7]: 7.26
- TI (therapeutic index) [4, 7]: >200
- Protection of cardiac myocytes from apoptotic cell death (in words) ([4]; compared to untreated OGD cells, dose dependent, nanomolar concentrations): protected the cardiac myocytes from apoptotic cell death; also recorded: effective
